Measurements as given in patent US4092415A, “Microorganism combatting quinoxaline-di-N-oxide carboxamides” (Ciba-Geigy Corporation, priority 1976, dated 1978).
Where two headings read alike, the source gives them in different places.

Experiments:
Assay type in all cases: in vivo
Pseud. aerug. = assay: Intraperitoneally infected white mice, Pseud. aerug.; conditions: Mus musculus, with infection and 3 hours later, read-out: average effective dose/confidence interval
Protocol: (§1) In tests carried out on white mice, the intraperitoneally infected animals are treated subcutaneously and perorally as follows:
(§2) The administration is effected in doses of 1 mg, 3 mg, 10 mg, 30 mg, 100 mg or 300 mg of active substance per kg of body weight initially simultaneously with the infection and a second time 3 hours later.

Staph. aureus Smith = assay: Intraperitoneally infected white mice, Staph. aureus Smith; conditions: Staphylococcus aureus, with infection and 3 hours later, read-out: average effective dose/confidence interval
Protocol: as §1, §2

E. coli 205 = assay: Intraperitoneally infected white mice, E. coli 205; conditions: Escherichia coli, with infection and 3 hours later, read-out: average effective dose/confidence interval
Protocol: as §1, §2

Strept. pyog. Aronson = assay: Intraperitoneally infected white mice, Strept. pyog. Aronson; conditions: Mus musculus; for ED50: with infection and 3 hours later, read-out: average effective dose/confidence interval; for ED20: value marked (ED 20)
Protocol: as §1, §2

Past. mult. = assay: Intraperitoneally infected white mice, Past. mult.; conditions: Mus musculus, with infection and 3 hours later, read-out: average effective dose/confidence interval
Protocol: as §1, §2

[1] = tested on: simultaneously infected hens; assay: Single peroral administration to simultaneously infected hens; conditions: Gallus gallus, po, single peroral administration by probang, simultaneous with infection
From the text: Single peroral administration by means of a probang to
simultaneously infected hens in mg of active substance

Salm. ty.-m = assay: Intraperitoneally infected white mice, Salm. ty.-m; conditions: Mus musculus, with infection and 3 hours later, read-out: average effective dose/confidence interval
Protocol: as §1, §2

piglets = assay: Demonstration of growth: piglets fed 28 days with medicated feed; conditions: 50 ppm in feed
From the text: A group of eight piglets (four .male. and four .female.) was fed for 28 days with a normal feed containing 17.6% of raw protein and 3.4% of crude fibres and to which 50 ppm of 1,4-dioxido-3-methyl-quinoxaline(2)-N-(2'-cyanoethyl)-carboxamide (Example 1) had been added. The average initial weight of the individual test animals was approx. 9 kg at the start of the test. At the conclusion of the test the animals were weighed individually and the feed consumption determined in groups. For control purposes, a parallel test following the same procedure was carried out using the same feed without the addition of active substance.

## Cc1c(C(=O)NCCO)[n+]([O-])c2ccccc2[n+]1[O-] [D, reference compound]
Pseud. aerug.; 2 × po.
  ED50: 490 mg/kg
Pseud. aerug.; 2 × sc.
  ED50: 210 mg/kg
Staph. aureus Smith; 2 × po.
  ED50: 60 mg/kg
Staph. aureus Smith; 2 × sc.
  ED50: 40 mg/kg
E. coli 205; 2 × po.
  ED50: 10 mg/kg
E. coli 205; 2 × sc.
  ED50: 9 mg/kg
Strept. pyog. Aronson; 2 × po.
  ED50: 410 mg/kg
Strept. pyog. Aronson; 2 × sc.
  ED50: 425 mg/kg
Past. mult.; 2 × po.
  ED50: 15 mg/kg
Past. mult.; 2 × sc.
  ED50: 14 mg/kg
[1]
  ED50: 5.3 mg/kg
Salm. ty.-m; 2 × po.
  ED50: 13 mg/kg
Salm. ty.-m; 2 × sc.
  ED50: 10 mg/kg

## Cc1c(C(=O)NC(C)(C)C#N)[n+]([O-])c2ccccc2[n+]1[O-] [B]
Pseud. aerug.; 2 × po.
  ED50: > 300 mg/kg
Pseud. aerug.; 2 × sc.
  ED50: > 100 mg/kg
Staph. aureus Smith; 2 × po.
  ED50: 18 mg/kg
Staph. aureus Smith; 2 × sc.
  ED50: 16 mg/kg
E. coli 205; 2 × po.
  ED50: 18 mg/kg
E. coli 205; 2 × sc.
  ED50: 11 mg/kg
Strept. pyog. Aronson; 2 × po.
  ED20: 170 mg/kg
Strept. pyog. Aronson; 2 × sc.
  ED20: 140 mg/kg
Past. mult.; 2 × po.
  ED50: 5.1 mg/kg
Past. mult.; 2 × sc.
  ED50: 3.2 mg/kg
Salm. ty.-m; 2 × po.
  ED50: 25 mg/kg
Salm. ty.-m; 2 × sc.
  ED50: 11 mg/kg

## COC(=O)N/N=C/c1c[n+]([O-])c2ccccc2[n+]1[O-] [E, reference compound]
Staph. aureus Smith; 2 × po.
  ED50: 35 mg/kg
Staph. aureus Smith; 2 × sc.
  ED50: 2500 mg/kg
E. coli 205; 2 × po.
  ED50: 30 mg/kg
E. coli 205; 2 × sc.
  ED50: 300 mg/kg
Past. mult.; 2 × po.
  ED50: ~30 mg/kg
Past. mult.; 2 × sc.
  ED50: ~100 mg/kg
[1]
  ED50: 9 mg/kg
Salm. ty.-m; 2 × po.
  ED50: 25 mg/kg
Salm. ty.-m; 2 × sc.
  ED50: 140 mg/kg

## Cc1c(C(=O)NCC#N)[n+]([O-])c2ccccc2[n+]1[O-] [A, 1,4-dioxido-3-methyl-quinoxaline(2)-N-(cyanomethyl)-carboxamide]
Pseud. aerug.; 2 × po.
  ED50: 75 mg/kg
Pseud. aerug.; 2 × sc.
  ED50: 120 mg/kg
Staph. aureus Smith; 2 × po.
  ED50: 12 mg/kg
Staph. aureus Smith; 2 × sc.
  ED50: 10 mg/kg
E. coli 205; 2 × po.
  ED50: 3.5 mg/kg
E. coli 205; 2 × sc.
  ED50: 3 mg/kg
Strept. pyog. Aronson; 2 × po.
  ED50: 265 mg/kg
Strept. pyog. Aronson; 2 × sc.
  ED20: 205 mg/kg
Past. mult.; 2 × po.
  ED50: 3.4 mg/kg
Past. mult.; 2 × sc.
  ED50: 3 mg/kg
[1]
  ED50: 2 mg/kg
Salm. ty.-m; 2 × po.
  ED50: 4.2 mg/kg
Salm. ty.-m; 2 × sc.
  ED50: 3.9 mg/kg

## Cc1c(C(=O)NCCC#N)[n+]([O-])c2ccccc2[n+]1[O-] [C, 1,4-Dioxido-3-methyl-quinoxaline(2)-N-(2'-cyanoethyl)-carboxamide]
Pseud. aerug.; 2 × po.
  ED50: 235 mg/kg
Pseud. aerug.; 2 × sc.
  ED50: 105 mg/kg
Staph. aureus Smith; 2 × po.
  ED50: 27 mg/kg
Staph. aureus Smith; 2 × sc.
  ED50: 18 mg/kg
E. coli 205; 2 × po.
  ED50: 6.6 mg/kg
E. coli 205; 2 × sc.
  ED50: 5.5 mg/kg
Strept. pyog. Aronson; 2 × po.
  ED50: 275 mg/kg
Strept. pyog. Aronson; 2 × sc.
  ED50: 400 mg/kg
Past. mult.; 2 × po.
  ED50: 3.9 mg/kg
Past. mult.; 2 × sc.
  ED50: 5.5 mg/kg
piglets; average values, control 1.90
  Feed consumption index abs.: 1.69 kg of feed consumed per kg of
piglets; average values, control 231 g
  Daily growth rate abs.: 305 g
piglets; control 100%
  Daily growth rate rel.: 132%
  Feed consumption index rel.: 88,9%
Salm. ty.-m; 2 × po.
  ED50: 11 mg/kg
Salm. ty.-m; 2 × sc.
  ED50: 10 mg/kg
